Experimental data as given in patent publication US10160764B2 (priority 2016, dated 2018).

Target: influenza virus minigenome (PB2, PB1, PA, NP, Luciferase reporter), Hubei (Influenza A virus, UniProt A0A1L2FNK2)
Format: cell-based
Details: read-out: RNP_Hubei EC50

O=C1c2c(O)c(=O)cnn2[C@@H]([C@@H](c2cccc(F)c2)c2ccc(F)c(F)c2)[C@H]2CCCN12 [Example 34, (9aR,10S)-10-((S)-(3,4-difluorophenyl)(3-fluorophenyl)methyl)-4-hydroxy-8,9,9a,10-tetrahydro-7H-pyrrolo[1′,2′:4,5]pyrazino[1,2-b]pyridazine-3,5-dione]
EC50: 43 nM
